Assay results reported in ChEMBL document CHEMBL3991948, “Rab7 GTPase inhibitors and related methods of treatment” (2014).
Each block holds one compound with its values, some of them ahead of it. Active and inactive are the calls of the source. The calls are words filed in the database; no cut-off is given here.

Experiments:
[1] = molecular target: T1, Integrin alpha-4/beta-1 (Homo sapiens) (UniProt P05556+P13612); test: Inhibition of FITC-LDV peptide binding to VLA4 in human U937 deltaST cells at 10 to 100 uM by FACScan flow cytometry; format: cell-based
[2] = Chemical stability of the compound after 72 hrs in presence of 1 to 2.4 mg L-glutathione by LCMS analysis; format: physicochemical
[3] = molecular target: Ras-related protein Rab-7a (Homo sapiens) (UniProt P51149); test: Displacement of BODIPY-GTP from nucleotide binding site of wild-type GST-tagged Rab7 GTPase (unknown origin) expressed in Escherichia coli BL21(DE3) in EDTA buffer assessed as residual activity after 2 hrs by flow cytometry
Ras-related protein Rab-7a (Homo sapiens), sequence (P51149 whole entry): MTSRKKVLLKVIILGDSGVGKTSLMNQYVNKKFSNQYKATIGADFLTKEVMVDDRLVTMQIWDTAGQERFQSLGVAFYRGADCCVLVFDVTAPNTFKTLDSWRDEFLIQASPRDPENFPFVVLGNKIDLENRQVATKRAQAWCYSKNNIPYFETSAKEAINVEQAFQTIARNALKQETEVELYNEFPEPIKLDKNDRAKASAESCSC

[4] = molecular target: T1, Integrin alpha-4/beta-1 (Homo sapiens); test: Inhibition of FITC-LDV peptide binding to VLA4 in human U937 deltaST cells at 10 to 50 uM by FACScan flow cytometry; format: cell-based
[5] = molecular target: Ras-related protein Rab-7a (Homo sapiens) (UniProt P51149); test: Displacement of BODIPY-GTP from nucleotide binding site of wild-type GST-tagged Rab7 GTPase (unknown origin) expressed in Escherichia coli BL21(DE3) in Mg buffer assessed as residual activity after 2 hrs by flow cytometry
[6] = Cytotoxicity against human U937 cells assessed as cell viability at 100 uM after 24 hrs by cell counting method (reference value: 94%); format: cell-based, U-937; details: read-out: Activity
[7] = molecular target: Ras-related protein Rab-7a (Homo sapiens) (UniProt P51149); test: Displacement of BODIPY-GTP from nucleotide binding site of wild-type GST-tagged Rab7 GTPase (unknown origin) expressed in Escherichia coli BL21(DE3) after 2 hrs by flow cytometry relative to untreated control
[8] = molecular target: T1, Integrin alpha-4/beta-1 (Homo sapiens); test: Inhibition of FITC-LDV peptide binding to VLA4 in human U937 deltaST cells at 30 uM by FACScan flow cytometry; format: cell-based

SMILES: CC1(C)Cc2c(sc(NC(=S)NC(=O)c3ccccc3)c2C(=O)O)CO1
- inhibition [1]: Active
- Stability [2]: Stable

SMILES: O=C(NC(=S)Nc1sc2c(c1C(=O)O)CCOC2)c1ccccc1
- Activity [3]: 91%
- inhibition [4]: Active
- Activity [5]: 45%
- viability at 24 h, 100 µM [6]: 92%

SMILES: CC1Cc2c(sc(NC(=S)NC(=O)c3ccccc3)c2C(=O)O)CO1 (centres undefined)
- Activity [3]: 91%
- Activity [5]: 56%
- viability at 24 h, 100 µM [6]: 94%

More lines, main results first:

- inhibition [7]: Active
SMILES: Nc1nc2c(ncn2[C@@H]2O[C@H](COP(=O)(O)OP(=O)(O)OP(=O)(O)O)[C@@H](O)[C@H]2O)c(=O)[nH]1

- inhibition [7]: Active
SMILES: Nc1nc2c(ncn2[C@@H]2O[C@H](COP(=O)(O)OP(=O)(O)O)[C@@H](O)[C@H]2O)c(=O)[nH]1

- Activity [3]: 100%
SMILES: CC1(C)Cc2c(sc(NC(=S)NC(=O)c3ccc(F)cc3)c2C(=O)O)CO1

- inhibition [8]: Active
SMILES: CC1(C)Cc2c(sc(NC(=O)NC(=O)c3ccccc3)c2C(=O)O)CO1
- viability at 24 h, 100 µM [6]: 98%
